Read-outs that look alike come from different tables or passages of the source.

The values below come from publication PMC7238388, “Biological Evaluation of Newly Synthesized Biaryl Guanidine Derivatives to Arrest β-Secretase Enzymatic Activity Involved in Alzheimer's Disease” (BioMed Research International, 2020).

Data set [1] deals with T1, BACE1 enzyme (Homo sapiens, UniProt P56817).
T1 construct: purchased Sigma-Aldrich CS0010
As to the kind of experiment: BACE1 FRET-based inhibitory activity assay (Sigma-Aldrich kit CS0010). It counts as biochemical. The method, then: BACE1 inhibitory activity was carried out by adopting the procedures described by the Sigma-Aldrich FRET-based assay activity kit (product # CS0010).
Briefly, the assay was carried out in a fixed volume of 100 μl with the BACE1 substrate (20 μl, 50 μM), assay buffer (78 μl/78-X μl, pH 4.5), test sample(s) (X μl, 100 μM), and BACE1 enzyme (2 μl, ~0.3 unit/μl) incubated at 37°C for 75 min in 96-well microplate reaction mixture. The baseline fluorescence (null time) signal was noticed (at 320 nm) immediately after the addition of BACE1 enzymes while emission signals were monitored at 405 nm at 25°C. Both the enzyme and the substrate were prepared in the buffer while tested samples dissolved primarily in DMSO (5%) subsequently in serially diluted buffer solution in a desired volume of 2 μl, 3 μl, and 5 μl having 200 pmol, 300 pmol, and 500 pmol concentration, respectively. A standard curve was prepared between fluorescent unit (FU) and standard solution (100 μM, 100-500 pmol, and 1-5 μl) to find out 50% BACE1 cleaving activity. The sample blank (buffer with substrate) was treated as the negative control while the positive control was the solution of the buffer with substrate and enzyme mixture (http://www.sigmaaldrich.com). Finally, IC50 of the intended compounds were calculated via GraphPad Prism v8 software.

Data set [2] has as its system AlCl3-induced mouse models. The data set can be described thus: Novel object recognition memory test in AlCl3-induced AD model mice. It counts as in vivo, BALB/c mice. Conditions: AD model treated with compound; control 64.44 ± 2.50 s, AD model 31.80 ± 2.00 s; p < 0.05. The method, then:
(§1) Male BALB/c mice (3.5 to 5.5 months of age) were purchased from National Institute of Health (NIH) Islamabad, Pakistan. All experiments were performed by following the rules and regulations in accordance with the Helsinki Declaration after getting permission from the Departmental Review Committee (Ref. # PHM.Eth/CS-M01/18-001 dated 05/2018). Animals were kept in standard cages and provided food, water, and cleanliness in accordance with the documented protocols. Moreover, they were categorized into nine groups (n = 10) for experimental purposes.
(§2) The control group of mice was treated with drinking water having aluminum chloride (17 mg/kg) and tape water for a period of five weeks. Synthesized ligands (20-55 mg/kg) were administered to neutralize the AlCl3 effects and to design treated mouse groups. All the behavioral tests were performed on days 28 to 34 (08:30 am to 4:30 pm at 25 ± 2°C). Animals were shifted 20 minutes prior to the experimentation room to get accustomed with the test environment. Trials were recorded via videocam, and results were obtained to reveal the final conclusions.
The novel object recognition memory test is an additional procedure to describe and evaluate the memory of the rodents. The entire methodology was performed in a specific designed box of dimensions about 25 cm × 25 cm × 25 cm at daytime (25 ± 2°C). […]

In data set [3] the test system is AlCl3-induced neurotoxic mice. As to the kind of experiment: Morris water maze test in AlCl3-induced neurotoxicity mice. It counts as in vivo, BALB/c mice. The method, then:
as §1, §2
To evaluate 3D spatial recalling memory of the animals under observations, an authentic and sensitive assay “Morris water maze test” was carried out.
The apparatus used for this test has a round pool with a 120 cm diameter and a 60 cm of depth. The pool is divided into 4 hypothetical quadrants North, West, South, and East. The experiment began on day 28, and 5 trials were executed each day. The mouse was given 1 min to find out the hidden platform with a 10 min interval between the two successive trials. The usual time essential for a mouse to reach at the platform was recorded, and an average of 5 trials was presumed as the escape latency of the animal for that day. On the 32nd day of intervention, a probe test was executed when there was no platform, with a different release position. The spatial memory of the mouse was estimated by computing the time spent by the mouse in the quadrant in which the platform was formerly located. […]

[4] abbreviates: BACE1 FRET assay, pH 4.5, 37°C, 75 min, read-out: IC50.

T1 sequence (P56817 46-501): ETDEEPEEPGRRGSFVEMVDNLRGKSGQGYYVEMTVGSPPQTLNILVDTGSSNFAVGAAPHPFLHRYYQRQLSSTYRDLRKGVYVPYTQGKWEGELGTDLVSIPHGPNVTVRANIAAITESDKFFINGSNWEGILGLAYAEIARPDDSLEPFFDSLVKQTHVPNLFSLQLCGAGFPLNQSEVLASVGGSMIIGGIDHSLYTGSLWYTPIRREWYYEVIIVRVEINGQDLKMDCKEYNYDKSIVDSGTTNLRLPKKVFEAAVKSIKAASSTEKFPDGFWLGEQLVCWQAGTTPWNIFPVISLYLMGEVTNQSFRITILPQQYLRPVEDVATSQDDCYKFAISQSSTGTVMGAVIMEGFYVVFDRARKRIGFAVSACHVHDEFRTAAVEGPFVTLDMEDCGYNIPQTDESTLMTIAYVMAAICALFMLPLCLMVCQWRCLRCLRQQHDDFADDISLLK

`N=C(Nc1ccccc1F)Nc1ccccc1F` [Compound 1, 1,3-bis(2-fluorophenyl)guanidine] came in with a melting point of 130 to 132 °C. Moreover, in data set [1] (setting [4]), the IC50 is 85 µM.

On to `N=C(Nc1ccc(Br)c2ccccc12)Nc1ccc(Br)c2ccccc12` [Compound 2, 1,3-bis(4-bromonaphthalen-1-yl)guanidine], for which the melting point lay in the range of 128 to 130 °C. Further, in data set [1] (setting [4]), the IC50 was 235 µM.

Regarding `N=C(Nc1ccccc1[N+](=O)[O-])Nc1ccccc1[N+](=O)[O-]` [Compound 3, 1,3-bis(2-nitrophenyl)guanidine], the melting point fell in the range of 136 to 138 °C. This molecule registered an IC50 in data set [1] of 259 µM.

`N=C(Nc1ccccn1)Nc1ccccn1` [Compound 4, 1,3-di(pyridin-2-yl)guanidine] came in with a melting point of 140 to 142 °C. In data set [1] (setting [4]), the half-maximal inhibitory concentration (IC50) stood at 9 µM.

In the case of `N=C(Nc1ccc2ncccc2c1)Nc1ccc2ncccc2c1` [Compound 5, 1,3-di(quinolin-6-yl)guanidine], the melting point was in the range of 133 to 134 °C. Further, in data set [1] (setting [4]), the IC50 stood at 0.091 µM.

`N=C(Nc1cc(F)c2ccccc2c1)Nc1cc(F)c2ccccc2c1` [Compound 6, 1,3-bis(4-fluoronaphthalen-2-yl)guanidine] showed a melting point of 126 to 128 °C. In addition, the IC50 in data set [1] (setting [4]) worked out at 0.102 µM.

The molecule `N=C(Nc1ccc2ccccc2c1)Nc1ccc2ccccc2c1` [Compound 7, 1,3-di(naphthalen-2-yl)guanidine] yielded a melting point of 146 to 148 °C. In data set [1] (setting [4]), the IC50 turned out to be 159 µM.

`N=C(Nc1cc(C(F)(F)F)cc(C(F)(F)F)c1)Nc1cc(C(F)(F)F)cc(C(F)(F)F)c1` [Compound 8, 1,3-bis(3,5-bis(trifluoromethyl)phenyl)guanidine]: the melting point is 76 to 78 °C. In data set [1] (setting [4]), the 50% inhibitory concentration (IC50) came out at 229 µM.

For the molecule `N=C(Nc1cnc(F)c(F)c1)Nc1cnc(F)c(F)c1` [Compound 9, 1,3-bis(5,6-difluoropyridin-3-yl)guanidine], the melting point was 128 to 130 °C. The exploration time in data set [2] turned out to be 53.80 ± 2.15 s. Besides, the escape latency in data set [3] (day 5, AlCl3-induced mice treated with compound, AlCl3 group 50.60 ± 3.70, control 20.20 ± 2.01, p < 0.05, in s (unit assumed)) worked out at 27.72 ± 2.60. Moreover, in data set [3] (probe test, AD model 6.10 ± 1.0, control 19.80 ± 1.90), the “number of crossings of the targeted quadrant” value came out at 16.70 ± 1.07. Further, the “time spent in exploration of the targeted quadrant” value in data set [3] (probe test, per hundred of total time (Figure 2c), AD-induced 23.6 ± 2.01, control 49.60 ± 2.35) amounted to 41.07 ± 2.5.

For `N=C(Nc1ccc(Br)cc1)Nc1ccc(Br)cc1` [Compound 10, 1,3-bis(4-bromophenyl)guanidine], the melting point was 250 to 252 °C. Moreover, the IC50 in data set [1] (setting [4]) turned out to be 321 µM. The molecule further had a BACE1 inhibition in data set [1] (FRET assay, at 500 pmol) of 35%.

As to `N=C(Nc1ccc(Cl)cc1F)Nc1ccc(Cl)cc1F` [Compound 11, 1,3-bis(4-chloro-2-fluorophenyl)guanidine], the melting point was 160 to 162 °C. For the same molecule, the IC50 in data set [1] (setting [4]) amounted to 172 µM.

`N=C(Nc1ccc(F)cc1)Nc1ccc(F)cc1` [Compound 12, 1,3-bis(4-fluorophenyl)guanidine] returned a melting point of 146 to 148 °C. Besides, the IC50 in data set [1] (setting [4]) came out at 103 µM.

Regarding `N=C(Nc1ccc(F)c(F)c1)Nc1ccc(F)c(F)c1` [Compound 13, 1,3-bis(3,4-difluorophenyl)guanidine], the IC50 in data set [1] (setting [4]) was found to be 71 µM.

The term IC50 denotes the concentration needed to halve the response being measured. Broadly, the melting point is the temperature of the solid-liquid transition.
